Experiments:
Design in all cases: scale not given: the % may be the effect or the level left
[1] = molecular target: Multidrug resistance protein 1a (Rattus norvegicus) (UniProt Q6PSM0); assay: TP_TRANSPORTER: inhibition of Daunomycin uptake (Daunorubicin: 10 uM, UDCA: 200 uM) in canalicular membrane vesicles from SD rat; assay type: functional, cell membranes; conditions: Sprague-Dawley, Canalicular membrane vesicle
[2] = molecular target: Multidrug resistance protein 1a (Rattus norvegicus) (UniProt Q6PSM0); assay: TP_TRANSPORTER: inhibition of Daunomycin uptake (Daunorubicin: 10 uM, TCDC: 200 uM) in canalicular membrane vesicles from SD rat; assay type: functional, cell membranes; conditions: Sprague-Dawley, Canalicular membrane vesicle
[3] = molecular target: ATP-dependent translocase ABCB1 (Homo sapiens, UniProt P08183); assay: TP_TRANSPORTER: inhibition of Rhodamine 123 efflux (R123: 5 ug/mL, TCDC: 200 uM) in P1(0.5) cells; assay type: functional, cell-based
[4] = molecular target: ATP-dependent translocase ABCB1 (P-glycoprotein) (Homo sapiens, UniProt P08183); assay: TP_TRANSPORTER: inhibition of Rhodamine 123 efflux (R123: 5 ug/mL, TLCA: 200 uM) in P1(0.5) cells; assay type: functional, cell-based; conditions: probe Rhodamine 123, read-out: Activity
[5] = molecular target: Multidrug resistance protein 1a (Rattus norvegicus) (UniProt Q6PSM0); assay: TP_TRANSPORTER: inhibition of Daunomycin uptake (Daunorubicin: 10 uM, TLCA: 200 uM) in canalicular membrane vesicles from SD rat; assay type: functional, cell membranes; conditions: Sprague-Dawley, Canalicular membrane vesicle

Multidrug resistance protein 1a (Rattus norvegicus), sequence (Q6PSM0 as listed by the source): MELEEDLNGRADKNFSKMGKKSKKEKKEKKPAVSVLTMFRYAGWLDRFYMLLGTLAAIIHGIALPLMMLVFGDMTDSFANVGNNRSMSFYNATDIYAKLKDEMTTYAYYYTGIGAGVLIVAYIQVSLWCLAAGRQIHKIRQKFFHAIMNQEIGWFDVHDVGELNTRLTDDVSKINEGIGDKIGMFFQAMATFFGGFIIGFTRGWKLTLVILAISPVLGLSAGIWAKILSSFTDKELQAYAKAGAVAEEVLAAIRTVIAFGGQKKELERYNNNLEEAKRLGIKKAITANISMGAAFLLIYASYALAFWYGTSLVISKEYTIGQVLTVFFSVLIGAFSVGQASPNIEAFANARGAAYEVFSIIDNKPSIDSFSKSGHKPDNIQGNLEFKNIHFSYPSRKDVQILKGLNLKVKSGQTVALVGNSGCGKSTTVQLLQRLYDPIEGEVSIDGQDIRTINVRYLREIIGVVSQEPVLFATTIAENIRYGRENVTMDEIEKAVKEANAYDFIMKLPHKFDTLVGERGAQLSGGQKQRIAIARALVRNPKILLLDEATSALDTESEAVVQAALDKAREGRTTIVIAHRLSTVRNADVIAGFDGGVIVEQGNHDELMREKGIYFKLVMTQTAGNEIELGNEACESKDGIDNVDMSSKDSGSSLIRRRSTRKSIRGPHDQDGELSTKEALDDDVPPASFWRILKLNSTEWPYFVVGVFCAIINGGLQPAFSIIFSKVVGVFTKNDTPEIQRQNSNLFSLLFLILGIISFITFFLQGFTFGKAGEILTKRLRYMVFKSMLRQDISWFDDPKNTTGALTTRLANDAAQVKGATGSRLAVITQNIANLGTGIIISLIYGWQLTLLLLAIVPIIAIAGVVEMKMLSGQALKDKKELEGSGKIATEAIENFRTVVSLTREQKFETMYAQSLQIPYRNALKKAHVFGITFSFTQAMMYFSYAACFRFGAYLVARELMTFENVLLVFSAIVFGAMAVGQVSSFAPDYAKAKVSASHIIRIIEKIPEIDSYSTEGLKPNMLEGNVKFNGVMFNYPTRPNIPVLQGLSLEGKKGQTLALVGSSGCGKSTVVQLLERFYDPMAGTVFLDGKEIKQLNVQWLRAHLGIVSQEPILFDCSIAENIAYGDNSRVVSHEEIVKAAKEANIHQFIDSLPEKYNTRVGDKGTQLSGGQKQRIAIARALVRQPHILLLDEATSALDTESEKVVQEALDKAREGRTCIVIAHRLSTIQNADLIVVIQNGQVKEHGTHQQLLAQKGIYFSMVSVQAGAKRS
ATP-dependent translocase ABCB1, sequence (P08183 whole entry): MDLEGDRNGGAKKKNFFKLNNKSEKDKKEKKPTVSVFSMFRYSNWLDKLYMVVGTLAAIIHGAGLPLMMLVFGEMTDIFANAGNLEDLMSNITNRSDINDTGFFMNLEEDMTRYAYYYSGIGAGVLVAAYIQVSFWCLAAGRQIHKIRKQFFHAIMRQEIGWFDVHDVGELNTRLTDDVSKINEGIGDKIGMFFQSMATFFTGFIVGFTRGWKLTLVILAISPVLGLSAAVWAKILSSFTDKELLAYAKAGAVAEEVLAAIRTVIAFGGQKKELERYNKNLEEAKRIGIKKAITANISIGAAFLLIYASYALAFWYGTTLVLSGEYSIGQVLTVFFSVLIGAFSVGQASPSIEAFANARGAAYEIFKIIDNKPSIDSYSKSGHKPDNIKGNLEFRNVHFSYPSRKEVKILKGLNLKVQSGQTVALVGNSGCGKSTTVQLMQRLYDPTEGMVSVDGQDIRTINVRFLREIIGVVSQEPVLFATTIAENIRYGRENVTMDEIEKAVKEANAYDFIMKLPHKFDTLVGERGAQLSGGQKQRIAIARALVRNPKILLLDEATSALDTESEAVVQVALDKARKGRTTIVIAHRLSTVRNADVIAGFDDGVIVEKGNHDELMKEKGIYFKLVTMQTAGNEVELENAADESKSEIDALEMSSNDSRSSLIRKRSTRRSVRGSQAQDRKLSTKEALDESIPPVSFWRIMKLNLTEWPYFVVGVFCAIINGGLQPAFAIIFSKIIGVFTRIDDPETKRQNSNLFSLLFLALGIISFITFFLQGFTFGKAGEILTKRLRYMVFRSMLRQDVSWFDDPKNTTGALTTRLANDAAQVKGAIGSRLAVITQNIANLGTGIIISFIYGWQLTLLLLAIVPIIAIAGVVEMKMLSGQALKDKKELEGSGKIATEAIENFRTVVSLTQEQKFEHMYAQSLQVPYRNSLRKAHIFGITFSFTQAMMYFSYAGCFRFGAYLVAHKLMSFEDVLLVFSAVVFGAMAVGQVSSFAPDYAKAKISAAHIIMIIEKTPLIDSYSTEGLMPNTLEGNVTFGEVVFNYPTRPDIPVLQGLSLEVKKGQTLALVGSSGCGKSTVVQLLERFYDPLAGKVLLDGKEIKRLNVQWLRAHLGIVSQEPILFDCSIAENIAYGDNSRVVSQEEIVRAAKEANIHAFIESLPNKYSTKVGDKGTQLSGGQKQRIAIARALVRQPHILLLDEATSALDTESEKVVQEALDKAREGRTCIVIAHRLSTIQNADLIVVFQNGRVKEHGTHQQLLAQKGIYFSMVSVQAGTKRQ
ATP-dependent translocase ABCB1 (P-glycoprotein), sequence (P08183 whole entry): as above

C[C@H](CCC(=O)O)[C@H]1CC[C@H]2[C@@H]3[C@@H](O)C[C@@H]4C[C@H](O)CC[C@]4(C)[C@H]3CC[C@]12C was tested. Which Activity [1] did it give?
The Activity was 39%.

With C[C@H](CCC(=O)NCCS(=O)(=O)O)[C@H]1CC[C@H]2[C@@H]3[C@H](O)C[C@@H]4C[C@H](O)CC[C@]4(C)[C@H]3CC[C@]12C [TAUROCHENODEOXYCHOLATE] as the compound, how does the Activity [2] read?
Its Activity is 33%.

And the Activity [3]?
The Activity was 66%.

For C[C@H](CCC(=O)NCCS(=O)(=O)O)[C@H]1CC[C@H]2[C@@H]3CC[C@@H]4C[C@H](O)CC[C@]4(C)[C@H]3CC[C@]12C [TAUROLITHOCHOLIC ACID], which activity at 200 µM [4] is on record?
Its activity at 200 µM is 40%.

And the Activity [5]?
Its Activity is 16%.

Reference: ChEMBL document CHEMBL2074517, “Bile acid inhibition of P-glycoprotein-mediated transport in multidrug-resistant cells and rat liver canalicular membrane vesicles” (Hepatology, 1994)
